Measurements as given in patent US8183292B2, “Chiral cyclic β-amino acids and their derivatives, pharmaceutical compositions containing them and the use of such compounds” (BioBlocks Magyarorszag Gyogyszerkemiai es Fejleszto Kft., priority 2006, dated 2012).

How the values were obtained:
P-glycoprotein = test: Reversal of multidrug resistance: rhodamine 123 accumulation in human mdr1 transfected L5178 mouse T-cell lymphoma cells (flow cytometry); assay type: cell-based; conditions: for Multidrug resistance reversing effect (in words): 4 and 40 μg/mL, at higher concentration multiple of fluorescence activity of Verapamil; for Vrel = effect related to Verapamil: Verapamil at 10 μg/ml; for R (activity ratio, fluorescence) / R = ratio of fluorescence and activity: rhodamine 123
Experimental: L5178 mouse T-cell lymphoma cells were transfected with pHa MDR1/A retrovirus, by the method as described by J. L. Weaver [J. L. Weaver, G. Szabó, P. S. Pine, M. M. Gottesmann, S. Goldenberg and A. Aszalos: The effect of ion channel blockers, immunosuppressive agents and other drugs on the activity of the multidrug transporter. Int. […] Mdr-1-expressing cell lines were selected by culturing the transfected cells with 60 ng/mL of colchicine to maintain the expression of the MDR phenotype. L5178 (parent) mouse T-cell lymphoma cells and the human mdr1 transfected subline were cultured in McCoy's 5A medium supplemented with 10% by mass of heath-inactivated horce serum, L-glutamine and antibiotics. Both cell lines were cultured at 37° C. The mouse lymphoma cell line was maintained in a 5% CO2 atmosphere.
The assays were carried out by the method as described by J. Molnár et al. [J. Molnár, I. Mucsi, J. Nacsa, A. Hevér, N. Gyémánt, K. Ugocsai, P. Hegyes, S. Kiessig, D. Gaal, H. Lage and A. Varga: New silicon compounds as resistance modifiers against multidrug-resistant cells. […] The cell density was set to a value of 2×10^6/mL, then the cells were resuspended in a serum-free McCoy's 5A medium and divided in aliquots of 0.5 mL in Eppendorf centrifuge tubes. The tested compounds were added in different concentrations to different volumes (2.0-20.0 μL) of 1.0-10.0 mg/mL stock solutions and the samples were incubated for 10 minutes at room temperature. […] The fluorescence of the cell population was measured with a Beckton Dickinson FACScan flow cytometer. […] The percentage value of the mean fluorescence intensity was calculated for the treated MDR and for the parental cell lines as compared with the values obtained with the untreated cells. The activity ratio (R) was calculated on the basis of the measured fluorescence values by the following equation: […]

[1] = tested on: MRC-5 human fibroblast cell lines; test: Cytotoxicity on MRC-5 human fibroblast cell lines (Alamar Blue/resazurine, 24 h); assay type: cell-based; conditions: MRC-5 cells, 24 hours incubation, 1% DMSO
Experimental: The toxic effect of the compounds was measured on MRC-5 human fibroblast cell lines in accordance with the method that has been described in the article published by Molnár et al. [L. Molnár, G. M. Keserü, Á. Papp, Z. Lörincz, G. Ambrus és F. Darvas.: A neural network based classification scheme for cytotoxicity predictions: Validation on 30,000 compounds, Bioorg. Med. Chem. Lett. 16(4), 1037-9 (2006)]. The cells were incubated for a cell cycle (24 hours) with solutions of various concentrations prepared from the compounds, in the presence of 1% of DMSO. 3 parallel measurements were carried out with 6 different concentrations. The ratio of the viable cells was determined by reducing the Alamaar Blue (resazurine) reagent that was followed fluorimetrically. The measured materials were not toxic on the given cell line in a concentration of 128 μmol after incubation for one day.
In the following Table 1 the cytotoxicity of some compounds according to the invention is given.

Which “Multidrug resistance reversing effect (in words)” value (P-glycoprotein) does the source give for `CCOC(=O)[C@H]1C[C@H]2C[C@@H]([C@H]1NC(=S)Nc1cccc(OC)c1)C2(C)C` [Compound 44, (1R,2R,3S,5R)-1-(3-Ethoxycarbonyl-6,6-Dimethylbicyclo[3.1.1]Heptan-2-yl)-3-(3-Methoxyphenyl)-Thiourea] here?
The value was “significant dose-dependent effect”.

And the “Vrel = effect related to Verapamil” value (P-glycoprotein; Table 2, 4 μg/ml)?
The value was 0.41.

And the “R (activity ratio, fluorescence)” value (P-glycoprotein; Table 2, 4 μg/ml)?
Its value is 2.02.

And the “Vrel = effect related to Verapamil” value (P-glycoprotein; Table 2, 40 μg/ml)?
The value was 4.47.

And the “R (activity ratio, fluorescence)” value (P-glycoprotein; Table 2, 40 μg/ml)?
The value was 22.

And the melting point?
The melting point was 132 to 135 °C.

And the “Survival (%) [c = 128 μM]” value [1]?
Its value is 128.1%.

Which “Vrel = effect related to Verapamil” value (P-glycoprotein; Table 2, 4 μg/ml) does the source give for `CCOC(=O)[C@H]1C[C@H]2C[C@@H]([C@H]1NC(=O)Nc1ccc(Cl)cc1)C2(C)C` [Compound 45, (1R,2R,3S,5R)-1-(3-Ethoxycarbonyl-6,6-Dimethylbicyclo[3.1.1]Heptan-2-yl) -3-(4-Chlorophenyl)-Urea] here?
The value was 1.52.

And the “R (activity ratio, fluorescence)” value (P-glycoprotein; Table 2, 4 μg/ml)?
The value was 7.46.

What about the “Vrel = effect related to Verapamil” value (P-glycoprotein; Table 2, 40 μg/ml) of the same compound?
Its value is 2.21.

And the “R (activity ratio, fluorescence)” value (P-glycoprotein; Table 2, 40 μg/ml)?
Its value is 10.89.

What about the melting point of the same compound?
Its melting point is 170 to 171 °C.

And the “Survival (%) [c = 128 μM]” value [1]?
The value was 176.7%.

Which “Multidrug resistance reversing effect (in words)” value (P-glycoprotein) does the source give for `CCOC(=O)[C@@H]1C[C@H]2C[C@@H]([C@H]1NC(=O)Nc1ccc(Cl)cc1)C2(C)C` [Compound 50, (1R,2R,3R,5R)-1-(3-Ethoxycarbonyl-6,6-Dimethylbicyclo[3.1.1]Heptan-2-yl)-3-(4-Chlorophenyl)-Urea] here?
The value was “significant dose-dependent effect”.

And the “Vrel = effect related to Verapamil” value (P-glycoprotein; Table 3, 4 μg/ml)?
Its value is 0.16.

And the “R = ratio of fluorescence and activity” value (P-glycoprotein; Table 3, 4 μg/ml)?
Its value is 1.87.

And the “Vrel = effect related to Verapamil” value (P-glycoprotein; Table 3, 40 μg/ml)?
Its value is 3.70.

What about the “R = ratio of fluorescence and activity” value (P-glycoprotein; Table 3, 40 μg/ml) of the same compound?
Its value is 42.58.

What about the melting point of the same compound?
The melting point was 167 to 169 °C.

What about the “Survival (%) [c = 128 μM]” value [1] of the same compound?
The value was 167.6%.

Which results are given for `CCOC(=O)[C@@H]1C[C@H]2C[C@@H]([C@H]1N(Cc1ccccc1)C(=S)Nc1cccc(OC)c1)C2(C)C` [Compound 52, (1R,2R,3R,5R)-1-Benzyl-1-(3-Ethoxycarbonyl-6,6-Dimethylbicyclo[3.1.1]-Heptan-2-yl)-3-(3-Methoxyphenyl)-Thiourea]?
Vrel = effect related to Verapamil (P-glycoprotein; Table 3, 4 μg/ml): 1.90; R = ratio of fluorescence and activity (P-glycoprotein; Table 3, 4 μg/ml): 21.87; Vrel = effect related to Verapamil (P-glycoprotein; Table 3, 40 μg/ml): 2.13; R = ratio of fluorescence and activity (P-glycoprotein; Table 3, 40 μg/ml): 24.44; Multidrug resistance reversing effect at lower concentrations (in words) (P-glycoprotein; lower concentration (4 μg/mL), similar values at higher concentration, indicating saturation): considerable multidrug resistance reversing effect; melting point: 110 to 111 °C; Survival (%) [c = 128 μM] [1]: 113.0%
